One compound from publication PMC9204300, “Investigating the Mechanism of Inhibition of Cyclin-Dependent Kinase 6 Inhibitory Potential by Selonsertib: Newer Insights Into Drug Repurposing” (Frontiers in Oncology, 2022) can be followed below.

By Kd is commonly meant the constant that tells how readily two partners part at equilibrium.

The target of this test is Cyclin-dependent kinase 6 (CDK6) (Homo sapiens, UniProt Q00534). As to the kind of experiment: biochemical.
Sequence of Cyclin-dependent kinase 6 (CDK6) (Q00534 whole entry): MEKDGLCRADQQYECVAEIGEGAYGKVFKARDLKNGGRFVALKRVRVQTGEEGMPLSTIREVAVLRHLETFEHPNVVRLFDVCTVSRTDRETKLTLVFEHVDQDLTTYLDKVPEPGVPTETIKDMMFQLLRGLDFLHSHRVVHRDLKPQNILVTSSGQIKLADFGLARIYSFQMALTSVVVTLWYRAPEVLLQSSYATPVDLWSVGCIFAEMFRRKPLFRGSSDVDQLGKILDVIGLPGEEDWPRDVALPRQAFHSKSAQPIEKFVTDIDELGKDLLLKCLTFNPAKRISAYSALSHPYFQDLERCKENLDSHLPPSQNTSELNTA

The compound `Cc1cc(F)c(C(=O)Nc2cccc(-c3nncn3C(C)C)n2)cc1-n1cnc(C2CC2)c1` [selonsertib] showed a Kd of 5.56 µM.
